In PubChem BioAssay (NCI):
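Five concentrations, 48 hours, 96-well plates. TGI: concentration producing complete growth inhibition.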

Experiments:
Experiment in all cases: NCI tumour cell line growth inhibition, 48 h
A498 renal = system: A498 renal
ACHN renal = system: ACHN renal
DU-145 prostate = system: DU-145 prostate
EKVX NSCLC = system: EKVX NSCLC
HCC-2998 colon = system: HCC-2998 colon
HOP-92 NSCLC = system: HOP-92 NSCLC
MDA-N = system: MDA-N
OVCAR-3 ovarian = system: OVCAR-3 ovarian
SK-MEL-28 melanoma = system: SK-MEL-28 melanoma
SNB-19 CNS = system: SNB-19 CNS

CCCCCC(=O)OC[n+]1ccc(-c2c(COC(=O)NC(C)C)c(COC(=O)NC(C)C)c3n2CCC3)cc1
TGI (A498 renal): > 100 µM | TGI (ACHN renal): > 100 µM | TGI (DU-145 prostate): > 100 µM | TGI (EKVX NSCLC): > 100 µM | TGI (HCC-2998 colon): > 100 µM | TGI (HOP-92 NSCLC): > 100 µM | TGI (MDA-N): > 100 µM | TGI (OVCAR-3 ovarian): > 100 µM | TGI (SK-MEL-28 melanoma): > 100 µM | TGI (SNB-19 CNS): > 100 µM

O=Cc1ccc(Oc2c3ccccc3nc3ccccc23)cc1
TGI (A498 renal): 14.5 µM | TGI (ACHN renal): 14 µM | TGI (DU-145 prostate): 13.7 µM | TGI (EKVX NSCLC): 40.2 µM | TGI (HCC-2998 colon): 28.6 µM | TGI (HOP-92 NSCLC): 17.7 µM | TGI (MDA-N): 13.8 µM | TGI (OVCAR-3 ovarian): 26 µM | TGI (SK-MEL-28 melanoma): 25.6 µM | TGI (SNB-19 CNS): 36.4 µM

FC1(F)SC2CCCCCCCCCCC2C1(F)F (stereo not given)
TGI (ACHN renal): 73.8 µM | TGI (DU-145 prostate): > 100 µM | TGI (EKVX NSCLC): > 100 µM | TGI (HOP-92 NSCLC): 51.6 µM | TGI (MDA-N): > 100 µM | TGI (OVCAR-3 ovarian): 39.1 µM | TGI (SK-MEL-28 melanoma): 71 µM | TGI (SNB-19 CNS): > 100 µM

COc1ccc(-c2c3c(n(C4OC(COC(C)=O)C(OC(C)=O)C(OC(C)=O)C4OC(C)=O)c(=S)c2C#N)CCCC3)cc1 (stereo not given)
TGI (A498 renal): 90 µM | TGI (ACHN renal): > 100 µM | TGI (DU-145 prostate): > 100 µM | TGI (EKVX NSCLC): > 100 µM | TGI (HCC-2998 colon): > 100 µM | TGI (MDA-N): > 100 µM | TGI (OVCAR-3 ovarian): 92.6 µM | TGI (SK-MEL-28 melanoma): > 100 µM | TGI (SNB-19 CNS): > 100 µM

Cc1nc2c(ccc3[nH]c4ccccc4c32)s1
TGI (A498 renal): 34.9 µM | TGI (ACHN renal): > 100 µM | TGI (DU-145 prostate): > 100 µM | TGI (EKVX NSCLC): 69.1 µM | TGI (HCC-2998 colon): 30.2 µM | TGI (HOP-92 NSCLC): 45.4 µM | TGI (MDA-N): > 100 µM | TGI (OVCAR-3 ovarian): 64.1 µM | TGI (SK-MEL-28 melanoma): 60.3 µM | TGI (SNB-19 CNS): > 100 µM

COc1ccc(C2=Nn3c(C)nnc3S/C2=C\c2ccc(-c3ccc([N+](=O)[O-])cc3)o2)cc1
TGI (A498 renal): 89.8 µM | TGI (ACHN renal): 25.3 µM | TGI (DU-145 prostate): 27.3 µM | TGI (EKVX NSCLC): 82.9 µM | TGI (HCC-2998 colon): 19.9 µM | TGI (HOP-92 NSCLC): 62.2 µM | TGI (MDA-N): 29.8 µM | TGI (OVCAR-3 ovarian): 33 µM | TGI (SNB-19 CNS): 38.7 µM

O=C(O)Cc1ccc(-n2nnc3c(=O)[nH][nH]c(=O)c32)cc1
TGI (ACHN renal): > 100 µM | TGI (DU-145 prostate): > 100 µM | TGI (EKVX NSCLC): > 100 µM | TGI (HCC-2998 colon): > 100 µM | TGI (HOP-92 NSCLC): > 100 µM | TGI (MDA-N): > 100 µM | TGI (OVCAR-3 ovarian): > 100 µM | TGI (SK-MEL-28 melanoma): > 100 µM | TGI (SNB-19 CNS): > 100 µM

COc1ccc(/C=C2\NC(=S)N(CN3CCOCC3)C2=O)cc1
TGI (A498 renal): > 100 µM | TGI (ACHN renal): > 100 µM | TGI (DU-145 prostate): > 100 µM | TGI (EKVX NSCLC): > 100 µM | TGI (HOP-92 NSCLC): > 100 µM | TGI (MDA-N): > 100 µM | TGI (OVCAR-3 ovarian): > 100 µM | TGI (SK-MEL-28 melanoma): > 100 µM | TGI (SNB-19 CNS): > 100 µM

O=c1ccc2c(Cl)sc(Cl)c2[nH]1
TGI (ACHN renal): > 100 µM | TGI (DU-145 prostate): > 100 µM | TGI (EKVX NSCLC): > 100 µM | TGI (HCC-2998 colon): > 100 µM | TGI (MDA-N): > 100 µM | TGI (OVCAR-3 ovarian): > 100 µM | TGI (SK-MEL-28 melanoma): > 100 µM | TGI (SNB-19 CNS): > 100 µM

CCOC(=O)C(C(=O)OCC)C(=S)NC1OC(COC(C)=O)C(OC(C)=O)C(OC(C)=O)C1OC(C)=O (stereo not given)
TGI (A498 renal): > 100 µM | TGI (DU-145 prostate): > 100 µM | TGI (EKVX NSCLC): > 100 µM | TGI (HCC-2998 colon): > 100 µM | TGI (HOP-92 NSCLC): > 100 µM | TGI (MDA-N): > 100 µM | TGI (OVCAR-3 ovarian): > 100 µM | TGI (SK-MEL-28 melanoma): > 100 µM | TGI (SNB-19 CNS): > 100 µM

CSc1c(C#N)c(=O)n(N)c2n[nH]c(C)c12
TGI (A498 renal): > 100 µM | TGI (DU-145 prostate): > 100 µM | TGI (EKVX NSCLC): > 100 µM | TGI (HCC-2998 colon): > 100 µM | TGI (MDA-N): > 100 µM | TGI (SK-MEL-28 melanoma): > 100 µM | TGI (SNB-19 CNS): > 100 µM

COc1ccc(-c2nc3ccccc3c(=O)[nH]2)cc1OC
TGI (DU-145 prostate): > 100 µM | TGI (EKVX NSCLC): 53.2 µM | TGI (HCC-2998 colon): > 100 µM | TGI (MDA-N): > 100 µM | TGI (OVCAR-3 ovarian): > 100 µM | TGI (SNB-19 CNS): 79 µM

COC(=O)C1=C(C(=O)OC)C2CCC1CC2=O (stereo not given)
TGI (A498 renal): > 100 µM | TGI (ACHN renal): > 100 µM | TGI (DU-145 prostate): > 100 µM | TGI (EKVX NSCLC): > 100 µM | TGI (HCC-2998 colon): > 100 µM | TGI (MDA-N): > 100 µM | TGI (OVCAR-3 ovarian): > 100 µM | TGI (SK-MEL-28 melanoma): > 100 µM | TGI (SNB-19 CNS): > 100 µM

O=C(Nc1ccccn1)c1cc2c(cc1Cl)Sc1nccn1S2(=O)=O
TGI (A498 renal): > 100 µM | TGI (ACHN renal): > 100 µM | TGI (EKVX NSCLC): 94.5 µM | TGI (HCC-2998 colon): 30.9 µM | TGI (HOP-92 NSCLC): > 100 µM | TGI (MDA-N): > 100 µM | TGI (OVCAR-3 ovarian): > 100 µM | TGI (SK-MEL-28 melanoma): > 100 µM | TGI (SNB-19 CNS): > 100 µM

COc1ccccc1N1C(=O)/C(=C\c2ccccc2)SC1c1cc(OC)c(OC)c(OC)c1 (stereo not given)
TGI (A498 renal): > 100 µM | TGI (ACHN renal): > 100 µM | TGI (EKVX NSCLC): > 100 µM | TGI (HCC-2998 colon): > 100 µM | TGI (HOP-92 NSCLC): > 100 µM | TGI (MDA-N): 48.6 µM | TGI (SK-MEL-28 melanoma): > 100 µM | TGI (SNB-19 CNS): > 100 µM

COc1ccc(C(CC(=O)c2ccc(O)cc2)C(C(=O)c2ccc(O)cc2)C(c2ccc(OC)cc2)C2C(=O)NC(=S)NC2=O)cc1 (stereo not given)
TGI (A498 renal): > 100 µM | TGI (ACHN renal): 43.6 µM | TGI (DU-145 prostate): 33.8 µM | TGI (HOP-92 NSCLC): > 100 µM | TGI (MDA-N): 41.5 µM | TGI (SK-MEL-28 melanoma): 48.8 µM | TGI (SNB-19 CNS): 43.7 µM

O=CC1C(=O)Nc2nc3ccccc3n2C1c1ccccc1 (stereo not given)
TGI (A498 renal): 28.8 µM | TGI (ACHN renal): 42.7 µM | TGI (DU-145 prostate): 25.3 µM | TGI (EKVX NSCLC): 82 µM | TGI (HOP-92 NSCLC): 31.3 µM | TGI (OVCAR-3 ovarian): 20.7 µM | TGI (SK-MEL-28 melanoma): 46.4 µM

COC(=O)Cc1c(-c2c(CC(=O)OC)c3ccccc3n2C2OC(COC3OC(COC(C)=O)C(OC(C)=O)C(OC(C)=O)C3OC(C)=O)C(O)C(O)C2O)[nH]c2ccccc12 (stereo not given)
TGI (A498 renal): > 100 µM | TGI (ACHN renal): > 100 µM | TGI (DU-145 prostate): > 100 µM | TGI (EKVX NSCLC): > 100 µM | TGI (HOP-92 NSCLC): > 100 µM | TGI (MDA-N): > 100 µM | TGI (OVCAR-3 ovarian): > 100 µM | TGI (SK-MEL-28 melanoma): > 100 µM | TGI (SNB-19 CNS): 60 µM

Nc1nc(=O)n(C2CC(O)C(CO)O2)c2nc(-c3ccc(-c4ccccc4)cc3)cnc12 (stereo not given)
TGI (A498 renal): > 100 µM | TGI (ACHN renal): > 100 µM | TGI (DU-145 prostate): > 100 µM | TGI (EKVX NSCLC): > 100 µM | TGI (HCC-2998 colon): > 100 µM | TGI (HOP-92 NSCLC): > 100 µM | TGI (MDA-N): > 100 µM | TGI (SNB-19 CNS): 91.1 µM

O=CN/C=C\c1cc(O)ccc1O
TGI (A498 renal): > 100 µM | TGI (ACHN renal): 28.2 µM | TGI (EKVX NSCLC): 32.9 µM | TGI (HCC-2998 colon): > 100 µM | TGI (HOP-92 NSCLC): 28 µM | TGI (OVCAR-3 ovarian): 25 µM | TGI (SK-MEL-28 melanoma): > 64.9 µM | TGI (SNB-19 CNS): > 100 µM

C[C@H](N)C(=O)Nc1ccc(-c2nc3ccccc3s2)cc1Cl
TGI (ACHN renal): 29 µM | TGI (DU-145 prostate): 32.1 µM | TGI (EKVX NSCLC): 26.7 µM | TGI (HCC-2998 colon): 17.9 µM | TGI (HOP-92 NSCLC): > 100 µM | TGI (MDA-N): 26.3 µM | TGI (OVCAR-3 ovarian): 19.2 µM | TGI (SK-MEL-28 melanoma): 27.7 µM | TGI (SNB-19 CNS): 30.4 µM

COC(=O)CCC(=O)c1ccc2c(c1)CC1(Cc3ccccc3C1)C2
TGI (A498 renal): > 100 µM | TGI (ACHN renal): > 100 µM | TGI (EKVX NSCLC): > 100 µM | TGI (HCC-2998 colon): > 100 µM | TGI (HOP-92 NSCLC): > 100 µM | TGI (MDA-N): > 100 µM | TGI (OVCAR-3 ovarian): > 100 µM

C/C(=N\Nc1nc2ccccc2[nH]1)c1ccc2ccccc2n1
TGI (ACHN renal): 24.2 µM | TGI (DU-145 prostate): 5.88 µM | TGI (EKVX NSCLC): 5.97 µM | TGI (MDA-N): 14.8 µM | TGI (OVCAR-3 ovarian): 2.95 µM | TGI (SK-MEL-28 melanoma): 23 µM | TGI (SNB-19 CNS): 15.9 µM

COc1cc2oc(=O)cc(C)c2c(OC)c1OC
TGI (A498 renal): 96.8 µM | TGI (ACHN renal): > 100 µM | TGI (DU-145 prostate): > 100 µM | TGI (EKVX NSCLC): > 100 µM | TGI (MDA-N): > 100 µM | TGI (OVCAR-3 ovarian): > 100 µM | TGI (SK-MEL-28 melanoma): > 100 µM | TGI (SNB-19 CNS): > 100 µM
